Assay results as given in patent publication US11628216B2 (priority 2013, dated 2023).
Where two headings read alike, the source gives them in different places.

Key:
[1] = system: antibodies of Example 3 (antibody of the invention against 6-acetylmorphine); format: binding; details: 6-AM Conc. 10 ng/mL
Protocol: Cross reactivity to heroin metabolites and other common structurally related opiates may be evaluated using the antibodies described herein. Immunoassays are constructed using the antibodies of Example 3, configured to operate in a competitive mode immunoassay format, in which the analogue compounds of the invention are compared with other related compounds for cross reaction against 6-acetylmorphine. […] Aliquots of labeled 6-acetylmorphine at 10 ng/mL are incubated in the presence of competing compound with the antibody of the invention, and the level of interaction of the competitor compound determined as a reduction in measured signal compared with the situation where only 6-acetylmorphine is present.
Cross reactivity to heroin metabolites and other common structurally related opiates were evaluated using the antibodies as described with reference to Example 3. […] Aliquots of labeled 6-acetylmorphine at 10 ng/mL were incubated in the presence of competing compound with the antibody of the invention, and the level of interaction of the competitor compound determined as a reduction in measured signal compared with the situation where only 6-acetylmorphine was present.

[2] = after last heroin use; cited from earlier work
[3] = system: selected monoclonal antibody against 6-AM; test: competitive assay for 6-AM developed with a selected antibody; format: binding; details: at clinically relevant concentrations
Protocol: (§1) The bacterial cells from each antibody library are streaked on agar to generate colonies. The colonies, coding for monoclonal antibodies, are used to inoculate culture medium in individual wells in 96-well plates. The liquid cultures are grown overnight and used to generate frozen cell stocks. The frozen cell stocks are used to generate duplicate 96-well plate cultures, followed by expression and purification of the monoclonal antibodies in soluble form in microgram quantities.
as §1, with “were” for “are”

| SMILES | crossreactivity [3] | also measured |
| --- | --- | --- |
| CC(=O)O[C@H]1C=CC2[C@H]3Cc4ccc(O)c5c4[C@@]2(CCN3C)[C@H]1O5 (stereo partly drawn) [6-Acetylmorphine] |  | Cross-Reactivity (%) ([1]; Analyte Conc. 10 ng/mL): 100%; time 6-AM remains in the urine [2]: no more than 24 hours |
| CC(=O)Oc1ccc2c3c1O[C@H]1[C@@H](OC(C)=O)C=C[C@H]4[C@@H](C2)N(C)CC[C@@]341 [Heroin, Diacetylmorphine] |  | Cross-Reactivity (%) ([1]; Analyte Conc. 750 ng/mL): 1.3% |
| CN1CC[C@]23c4c5ccc(O[C@@H]6O[C@H](C(=O)O)[C@@H](O)[C@H](O)[C@H]6O)c4O[C@H]2[C@@H](O)C=C[C@H]3[C@H]1C5 [Morphine 3-D-glucuronide] | no crossreactivity |  |
| CN1CC[C@]23c4c5ccc(O)c4O[C@H]2[C@@H](O[C@@H]2O[C@H](C(=O)O)[C@@H](O)[C@H](O)[C@H]2O)C=C[C@H]3[C@H]1C5 [Morphine 6-D-glucuronide] | no crossreactivity |  |
| CN1CC[C@]23c4c5ccc(O)c4O[C@H]2[C@@H](O)C=C[C@H]3[C@H]1C5 [Morphine] | no crossreactivity |  |
